# Test results from patent publication US20160368879A1, “PHOTOACID GENERATOR, AND RESIN COMPOSITION FOR PHOTOLITHOGRAPHY” (SAN-APRO LTD., priority 2013, published 2016).
# Assays:
# Type in all cases: physicochemical
# [1] = Molar extinction coefficient of i-line (365 nm), UV-visible absorbance in acetonitrile; conditions: 0.25 mmol/L in acetonitrile, cell length 1 cm
# Description: The synthesized photoacid generator was diluted to 0.25 mmol/L with acetonitrile, and using an ultraviolet-visible spectrophotometer (UV-2550 available from SHIMADZU CORPORATION), the absorbance in a range of 200 nm to 500 nm was measured with a cell having an optical path length (a cell length) of 1 cm. The molar extinction coefficient of i-line (365 nm) (ε365) was calculated from the following equation.
# [In the equation, […] represents the absorbance at 365 nm.]
# [2] = Thermal decomposition temperature (TG/DTA, 2% weight reduction); conditions: point of 2% weight reduction; 10° C./minute from 30° C. to 500° C.; nitrogen atmosphere
# Description: The synthesized photoacid generator was measured for the change in weight under a temperature increasing condition of 10° C./minute from 30° C. to 500° C. under a nitrogen atmosphere using a thermal gravimetric/differential thermal analyzer (TG/DTA 6200, available from Seiko Instruments Inc.), and a point where the weight was reduced by 2% was defined as the thermal decomposition temperature.
# [3] = Solvent solubility (butyl acetate, toluene or PGMEA); conditions: 25° C.
# Description: In a test tube, 0.1 g of the synthesized photoacid generator was placed, and an organic solvent (butyl acetate, toluene or PGMEA) was added thereto in 0.2 g portions under a condition where the temperature was adjusted to 25° C. until the photoacid generator was completely dissolved. In this connection, in the case where the photoacid generator was not completely dissolved even when 20 g of the solvent was added, the photoacid generator was evaluated as one that was not dissolved.
Structure (SMILES),Molar extinction coefficient [1] [L/mol/cm],Thermal decomposition temperature [2] [°C],Solvent solubility PGMEA [3] [wt %],Solvent solubility Butyl acetate [3] [wt %],Solvent solubility Toluene [3] [wt %]
"CC(C)(C)Cc1cc2c3c(cc(CC(C)(C)C)cc3c1)C(=O)N(OS(=O)(=O)c1c(F)c(F)c(F)c(F)c1F)C2=O [Example A-34, 3,6-dineopentyl-1,8-naphthalimide pentafluorobenzenesulfonate]",6200,250,11,14,8
"O=C1c2cc(C34CC5CC(CC(C5)C3)C4)cc3cc(C45CC6CC(CC(C6)C4)C5)cc(c23)C(=O)N1OS(=O)(=O)C(F)(F)F [Example A-15, 3,6-diadamantyl-1,8-naphthalimide trifluoromethanesulfonate]",6000,250,7,7.5,8.5
"O=C1c2cc(C34CC5CC(CC(C5)C3)C4)cc3cc(C45CC6CC(CC(C6)C4)C5)cc(c23)C(=O)N1OS(=O)(=O)c1c(F)c(F)c(F)c(F)c1F [Example A-35, 3,6-diadamantyl-1,8-naphthalimide pentafluorobenzenesulfonate]",6000,251,5.5,6,9
"CC(C)Oc1ccc2c3c(cccc13)C(=O)N(OS(=O)(=O)C(F)(F)F)C2=O [Example A-1, 4-isopropoxy-1,8-naphthalimide trifluoromethanesulfonate]",16300,234,6.5,8.5,9
"CC1(C)C2CCC1(CS(=O)(=O)ON1C(=O)c3cccc4c(Oc5c(F)c(F)c(F)c(F)c5F)ccc(c34)C1=O)C(=O)C2 (stereo not drawn) [Example A-45, 4-pentafluorophenoxy-1,8-naphthalimide-(+)-10-camphorsulfonate]",12000,245,3.5,4,4
"C[Si](C)(C)c1ccc2c3c(cccc13)C(=O)N(OS(=O)(=O)c1c(F)c(F)c(F)c(F)c1F)C2=O [Example A-38, 4-trimethylsilyl-1,8-naphthalimide pentafluorobenzenesulfonate]",5500,241,5.5,5.5,6

# Now from value to compound:
Molar extinction coefficient [1] [L/mol/cm],Thermal decomposition temperature [2] [°C],Solvent solubility PGMEA [3] [wt %],Solvent solubility Butyl acetate [3] [wt %],Solvent solubility Toluene [3] [wt %],Structure (SMILES)
40,241,5,5,5.5,"CC1(C)C2CCC1(CS(=O)(=O)ON1C(=O)c3cccc4c(C(F)(F)C(F)(F)C(F)(F)C(F)(F)F)ccc(c34)C1=O)C(=O)C2 (stereo not drawn) [Example A-56, 4-(nonafluorobutyl)-1,8-naphthalimide-(+)-10-camphorsulfonate]"
1300,245,7.5,12,10,"CC1(C)C2CC[C@@]1(CS(=O)(=O)ON1C(=O)c3cccc4cc(OC(=O)c5c(F)c(F)c(F)c(F)c5F)cc(c34)C1=O)C(=O)C2 [Example A-52, 3-pentafluorobenzoyloxy-1,8-naphthalimide-(+)-10-camphorsulfonate]"
5500,243,2.5,2.5,3,"CC1(C)[C@@H]2CC[C@@]1(CS(=O)(=O)ON1C(=O)c3cccc4c([Si](C)(C)C)ccc(c34)C1=O)C(=O)C2 [Example A-58, 4-trimethylsilyl-1,8-naphthalimide-(+)-10-camphorsulfonate]"
